Reference: patent US20230220443A1, “CHARACTERIZATION OF S-ADENOSYL-L-METHIONINE-CONSUMING ENZYMES WITH 1-STEP EZ-MTASE: A UNIVERSAL COUPLED-ASSAY” (ALBERT EINSTEIN COLLEGE OF MEDICINE, priority 2017, published 2023)

How the values were obtained:
CePRMT5 = molecular target: T1, CePRMT5 (Caenorhabditis elegans, UniProt P46580); assay: 1-Step EZ-MTase UV-based coupled assay, CePRMT5 kinetics; format: biochemical; conditions: for Km / kcat: pH=7.60, co-substrate saturating, 4 μM TM0936, 263 nm (282 nm for 8-aza-SAM); for catalytic efficiency: saturating H4 peptide
T1 construct: made in house
T1 sequence (P46580 1-734): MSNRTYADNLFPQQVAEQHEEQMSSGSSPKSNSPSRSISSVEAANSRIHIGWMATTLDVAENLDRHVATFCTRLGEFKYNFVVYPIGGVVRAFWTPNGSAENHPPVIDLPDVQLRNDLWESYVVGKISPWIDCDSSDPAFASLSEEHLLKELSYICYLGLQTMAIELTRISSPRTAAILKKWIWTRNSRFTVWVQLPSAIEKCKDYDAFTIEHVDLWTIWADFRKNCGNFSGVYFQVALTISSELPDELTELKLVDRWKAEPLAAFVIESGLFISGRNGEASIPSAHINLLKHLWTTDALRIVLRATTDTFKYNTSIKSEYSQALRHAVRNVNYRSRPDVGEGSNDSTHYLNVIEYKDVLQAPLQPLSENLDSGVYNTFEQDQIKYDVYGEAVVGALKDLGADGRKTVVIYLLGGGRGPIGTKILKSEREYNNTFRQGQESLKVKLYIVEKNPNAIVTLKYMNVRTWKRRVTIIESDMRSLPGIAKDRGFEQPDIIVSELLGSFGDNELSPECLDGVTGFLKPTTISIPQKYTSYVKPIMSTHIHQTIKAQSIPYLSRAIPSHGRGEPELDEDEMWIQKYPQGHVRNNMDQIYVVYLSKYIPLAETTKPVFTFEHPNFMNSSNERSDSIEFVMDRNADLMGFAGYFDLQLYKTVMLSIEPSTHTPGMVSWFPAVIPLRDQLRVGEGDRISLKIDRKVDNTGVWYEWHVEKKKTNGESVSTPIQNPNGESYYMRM
Experimental: The 250-μL reaction mixtures from a same row contained 50 mM phosphate buffer pH=7.60, 1 mM βME, 10% glycerol, 4 μM coupling deaminase TM0936, 300 nM CePRMT5 and various peptide concentrations (5-180 μM; in the first well, peptide acceptor was omitted to account for background signal—natural decomposition of SAM). The methyltransfer reactions started upon addition of SAM (25 μM saturating final concentration) and absorbance was recorded.
The 250-μL reaction mixtures from a same row contained 50 mM phosphate buffer pH=7.60, 1 mM βME, 10% glycerol, 4 μM coupling deaminase TM0936, 300 nM CePRMT5 and various SAM concentrations (2.35-47.0 μM). […] Initial rates were first corrected for background signal, then plotted against SAM concentrations and fitted to the Morrison kinetic model to yield corresponding kinetic parameters.
(§1) Kinetic behavior for 8-aza-SAM against MTases (acceptor sat.)—Briefly, kinetic parameters were determined at 20° C. in a UV-Star 96-well flat bottom plate (Greiner Bio-One, #655801) by continuous monitoring of absorbance at 282 nm using a SpectraMax M5 instrument (Molecular Devices). As for SAM experiments, the measurements consisted of two experimental subsets: MTase reactions (both 8-aza-SAM and acceptor added) and MTase blanks (8-aza-SAM was added without acceptor to account for natural 8-aza-SAM decomposition). The 250-μL (60-μL) reaction mixtures from a same row contained 50 mM phosphate buffer pH=7.60 (7.80), 1 mM βME, 10% glycerol (5% glycerol, 100 μM MgCl2), 4 μM coupling deaminase TM0936, either 1.5 μM CePRMT5 or 402 nM TbPRMT7 (or 610 nM GsSDMT) and various 8-aza-SAM concentrations. […] Initial rates were first corrected for background signal, then plotted against 8-aza-SAM concentrations and fitted to the Michaelis-Menten equation to yield corresponding kinetic parameters.

GsSDMT = molecular target: T2, GsSDMT (Galdieria sulphuraria, UniProt M2XPA0); assay: 1-Step EZ-MTase UV-based coupled assay, GsSDMT kinetics; format: biochemical; conditions: for Km / kcat: pH=7.80, co-substrate saturating
T2 sequence (M2XPA0 2-297): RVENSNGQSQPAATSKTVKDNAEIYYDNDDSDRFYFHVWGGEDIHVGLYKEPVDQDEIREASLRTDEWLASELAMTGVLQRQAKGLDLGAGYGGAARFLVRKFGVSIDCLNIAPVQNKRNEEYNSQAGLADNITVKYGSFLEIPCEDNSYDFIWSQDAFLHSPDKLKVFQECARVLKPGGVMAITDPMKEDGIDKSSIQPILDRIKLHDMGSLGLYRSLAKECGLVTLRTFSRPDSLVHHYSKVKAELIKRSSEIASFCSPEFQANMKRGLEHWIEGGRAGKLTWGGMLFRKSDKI
Experimental: Kinetic behavior for sarcosine against GsSDMT (SAM sat.)—Experiments were conducted following matching CePRMT5 protocol above. Briefly, the 100-μL mixtures from a same row contained 100 mM phosphate buffer pH=7.80, 1 mM βME, 5% glycerol, 100 μM MgCl2, 4 μM coupling deaminase TM0936, 976 nM GsSDMT and various sarcosine concentrations (0.5-12.5 mM; in the first well, sarcosine was omitted to account for background signal—natural decomposition of SAM). Reactions started upon addition of SAM (750 μM saturating final concentration), 60-μL volumes were transferred onto UV plate and absorbance was recorded. Initial rates were first corrected for background signal, and then plotted against sarcosine concentrations. Fit to the Michaelis-Menten equation provided corresponding kinetic parameters.
Kinetic behavior for SAM against GsSDMT (sarcosine sat.)—Experiments were conducted following matching CePRMT5 protocol above. Briefly, the measurements consisted of two experimental subsets: MTase reactions (both SAM and sarcosine added) and MTase blanks (SAM was added without sarcosine to account for natural SAM decomposition). The 100-μL reaction mixtures from a same row contained 100 mM phosphate buffer pH=7.80, 1 mM βME, 5% glycerol, 100 μM MgCl2, 4 μM coupling deaminase TM0936, 195 nM GsSDMT and various SAM concentrations (49.9-750.2 μM). Reactions started upon addition of either sarcosine (10 mM saturating final concentration; MTase reactions) or water (MTase blanks), 60-μL volumes were transferred onto UV plate and absorbance was recorded at 263 nm. Initial rates were first corrected for background signal, and then plotted against SAM concentrations. Fit to the Michaelis-Menten equation provided corresponding kinetic parameters.
as §1

Compound | substrate inhibition constant (Ks / Kf) (CePRMT5; 282 nm, pH=7.60, H4(1-20) 104 μM) [µM] | Km (CePRMT5) [µM] | kcat (CePRMT5) [s⁻¹] | catalytic efficiency (CePRMT5) [M⁻¹ s⁻¹] | substrate inhibition (inhibitory behavior of the analog) (GsSDMT) | Km (GsSDMT) [µM] | kcat (GsSDMT) [s⁻¹]
C[S+](CC[C@H](N)C(=O)O)C[C@H]1O[C@@H](n2nnc3c(N)ncnc32)[C@H](O)[C@@H]1O (stereo partly drawn) [8-aza-SAM, S-8-aza-adenosyl-L-methionine] | 67 ± 42 | 35 ± 19 | 0.00417 ± 0.0017 | 120 | not observed | 443 ± 33 | 1.35 ± 0.05
C[S+](CC[C@H](N)C(=O)O)C[C@H]1O[C@@H](n2cnc3c(N)ncnc32)[C@H](O)[C@@H]1O (stereo partly drawn) [SAM, S-adenosyl-L-methionine] |  | 6.8 ± 0.3 | 0.00886 ± 0.00014 | 1300 |  | 95 ± 18 | 0.7 ± 0.033
